Reference: publication PMC7766124, “Improved Cell Selectivity of Pseudin-2 via Substitution in the Leucine-Zipper Motif: In Vitro and In Vivo Antifungal Activity” (Antibiotics, 2020)
Where two headings read alike, the source gives them in different places. No end group written: not given here.

What was measured:
F. moniliforme = type: cell-based, Fusarium moniliforme (KCTC 6149); settings: 36 h
Description: (§1) Aspergillus flavus (KCTC 6905), A. fumigatus (KCTC 6145), Fusarium moniliforme (KCTC 6149), F. oxysporum (KCTC 16909), C. albicans (KCTC 7270), C. krusei (CCARM 14017), C. parapsilosis (CCARM 14016), C. tropicalis (KCTC 7221), and T. beigelii (KCTC 7707) were obtained from the Korea Collection for Type Cultures (KCTC) and Culture Collection of Antimicrobial Resistant Microbes (CCARM). Mold and yeast fungi were pre-grown on potato dextrose (PD) and yeast extract peptone dextrose (YPD) agars, respectively.
(§2) Antifungal activity of peptides was performed by microtiter plate assays. Fungal conidia from four-day-old molds were collected using 0.08% Triton X-100 (v/v), and pre-cultivated yeast cells were adjusted to 2 × 10^4 spores/mL in 10 mM sodium phosphate buffer (SP, pH 7.2) or 10 mM 2-(N-morpholino)ethanesulfonic acid (MES) buffer (pH 5.5) supplemented with 20% culture medium, followed by addition to peptide solutions (0.25, 0.5, 1, 1.5, 2, 4, 6, 8, 12, 16, 32, 48, and 64 µM) in 96-well microtiter plates. After incubation for 36 h at 28 °C, the hyphal growth of conidia and the proliferation of yeast cells were observed under a light microscope. All assays were performed in triplicate. The MIC values were defined as the lowest concentration of samples that reduced fungal germination (for mold) or cell proliferation (for yeast) by more than 90% [34].

C. albicans = type: cell-based, C. albicans (KCTC 7270); settings: 36 h
Description: as §1, §2

C. tropicalis = type: cell-based, C. tropicalis (KCTC 7221); settings: 36 h
Description: as §1, §2

HaCaT cells = assay: Cytotoxicity, XTT cell viability assay; type: cell-based, human; settings: peptides 4-256 µM, 24 h incubation, triplicate
Protocol: Cell viability was assessed using sodium XTT assays. HaCaT (human immortalized keratinocytes) cells were cultured in Dulbecco’s modified Eagle medium (DMEM; ThermoFisher Scientific, Gibco, Waltman, MA, USA) supplemented with antibiotic-antimycotic (ThermoFisher Scientific, Gibco) and 10% fetal bovine serum (FBS; ThermoFisher Scientific, Gibco) at 37 °C in a humidified chamber containing 5% CO2. The cells were seeded at 5 × 10^4 cells/mL in flat-bottom 96-well microtiter plates in triplicate. Twenty-four hours later, cells were treated with two-fold serial dilutions of peptides (ranging from 256 to 4 µM) in medium, and the cells were further incubated for 24 h. Next, activated-XTT solution was added to each well and the plates were additionally incubated for 4 h. Absorbance in each well was measured at wavelengths of 480 and 650 nm using a microtiter SpectraMax M5 reader (Molecular Devices, Sunnyvale, CA, USA). Triton X-100 (0.1% v/v) and DMEM were used as controls for survival.

mouse erythrocytes = assay: Hemolytic assay; type: cell-based; settings: 64 µM peptide, 8% (v/v) mRBCs, 37 °C, 2 h (method) / 4 h (figure legend)
Protocol: Mouse blood was collected into sodium heparin-coated tubes (BD Vacutainer; BD Diagnostics, Oxford, UK). The mRBCs were obtained by centrifugation (800× g, 10 min) and washing with PBS. The washed mRBCs were added to a final concentration of 8% (v/v) in 64 µM peptide solution, followed by incubation for 2 h at 37 °C. After centrifugation, each tube was digitally recorded.

Substance: GLNALKKVFQGIHEAIKLINNHVQ-NH2 [Pseudin-2]
- MIC (F. moniliforme; pH 5.5): 64 µM
- MIC (F. moniliforme; pH 7.2): 32 µM
- MIC (C. albicans; pH 5.5): 32 µM
- MIC (C. albicans; pH 7.2): 12 µM
- MIC (C. tropicalis; pH 5.5): 2 µM
- MIC (C. tropicalis; pH 7.2): 4 µM
- cytotoxic effects against HaCaT cells (HaCaT cells): significant, concentration-dependent cytotoxic effects
- hemolytic effects (hemoglobin release, by visualization) (mouse erythrocytes): did not release hemoglobin
